Laboratory results published in ChEMBL document CHEMBL1201862, “PubChem BioAssay data set” (2004).
Each block holds one compound with its values, some of them ahead of it. Calls of active or inactive are those of the source.

Key:
[1] = biological target: T1, Hexokinase HKDC1 (Homo sapiens, UniProt Q2TB90); assay: HKDC1 hexokinase inhibitors, dose response, biochemical, W721R variant (AID 504729); type: functional
T1 sequence (Q2TB90 whole entry): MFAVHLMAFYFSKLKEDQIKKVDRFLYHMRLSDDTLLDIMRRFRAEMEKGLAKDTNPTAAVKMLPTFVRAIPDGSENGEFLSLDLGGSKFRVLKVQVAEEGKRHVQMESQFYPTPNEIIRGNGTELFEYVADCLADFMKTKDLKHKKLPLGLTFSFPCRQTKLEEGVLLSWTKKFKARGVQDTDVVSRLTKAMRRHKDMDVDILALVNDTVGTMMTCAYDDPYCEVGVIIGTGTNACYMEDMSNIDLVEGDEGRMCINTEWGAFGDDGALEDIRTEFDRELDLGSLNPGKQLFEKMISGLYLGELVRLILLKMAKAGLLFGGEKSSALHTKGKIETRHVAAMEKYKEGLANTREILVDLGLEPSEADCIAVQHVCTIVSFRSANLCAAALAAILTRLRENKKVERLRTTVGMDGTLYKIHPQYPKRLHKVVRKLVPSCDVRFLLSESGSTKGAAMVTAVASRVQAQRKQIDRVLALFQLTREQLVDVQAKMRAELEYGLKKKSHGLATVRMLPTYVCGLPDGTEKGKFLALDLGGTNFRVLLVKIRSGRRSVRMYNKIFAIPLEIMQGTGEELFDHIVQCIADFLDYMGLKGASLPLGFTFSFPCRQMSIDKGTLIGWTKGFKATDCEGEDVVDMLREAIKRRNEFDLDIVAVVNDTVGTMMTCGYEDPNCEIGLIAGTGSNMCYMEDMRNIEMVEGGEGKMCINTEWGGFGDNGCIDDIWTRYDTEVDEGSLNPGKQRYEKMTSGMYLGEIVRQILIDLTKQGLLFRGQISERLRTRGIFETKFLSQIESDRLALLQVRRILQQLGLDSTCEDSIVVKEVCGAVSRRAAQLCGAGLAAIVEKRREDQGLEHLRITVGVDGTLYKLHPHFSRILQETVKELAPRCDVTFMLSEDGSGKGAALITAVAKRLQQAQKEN

[2] = biological target: Dual specificity tyrosine-phosphorylation-regulated kinase 3 (Homo sapiens, UniProt O43781); type: functional;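 also: measured as one member of a broad kinase panel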
[3] = biological target: Cyclin-dependent kinase 1 (Homo sapiens, UniProt P06493); type: functional;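 also: Kinome-wide panel profiling, with the target listed as panel member CDC2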
[4] = biological target: 5'-AMP-activated protein kinase catalytic subunit alpha-1 (Homo sapiens, UniProt Q13131); type: functional
[5] = biological target: T2, Caspase-3 (Homo sapiens, UniProt P42574); assay: caspase-3 enzyme inhibitors, selectivity check, dose response, selectivity assay for caspase-6 allosteric inhibitor project, biochemical, fluorescence, cherry-picked samples (AID 743291)
T2 sequence (P42574 whole entry): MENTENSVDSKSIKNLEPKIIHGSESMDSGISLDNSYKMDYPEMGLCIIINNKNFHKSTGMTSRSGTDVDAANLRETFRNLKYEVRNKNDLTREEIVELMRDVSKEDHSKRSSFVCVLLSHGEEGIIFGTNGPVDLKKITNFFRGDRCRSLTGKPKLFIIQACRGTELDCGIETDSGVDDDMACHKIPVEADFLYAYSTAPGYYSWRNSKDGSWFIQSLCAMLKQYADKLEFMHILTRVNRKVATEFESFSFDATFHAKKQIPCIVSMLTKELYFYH

[6] = biological target: Genome polyprotein (dengue virus type 2, UniProt P29990); assay: Dengue-2 NS5 methyltransferase inhibitors, primary screen, biochemical, confirmation dose response (AID 588689); type: functional
Sequence of Genome polyprotein (P29990 2492-3391 limits assumed): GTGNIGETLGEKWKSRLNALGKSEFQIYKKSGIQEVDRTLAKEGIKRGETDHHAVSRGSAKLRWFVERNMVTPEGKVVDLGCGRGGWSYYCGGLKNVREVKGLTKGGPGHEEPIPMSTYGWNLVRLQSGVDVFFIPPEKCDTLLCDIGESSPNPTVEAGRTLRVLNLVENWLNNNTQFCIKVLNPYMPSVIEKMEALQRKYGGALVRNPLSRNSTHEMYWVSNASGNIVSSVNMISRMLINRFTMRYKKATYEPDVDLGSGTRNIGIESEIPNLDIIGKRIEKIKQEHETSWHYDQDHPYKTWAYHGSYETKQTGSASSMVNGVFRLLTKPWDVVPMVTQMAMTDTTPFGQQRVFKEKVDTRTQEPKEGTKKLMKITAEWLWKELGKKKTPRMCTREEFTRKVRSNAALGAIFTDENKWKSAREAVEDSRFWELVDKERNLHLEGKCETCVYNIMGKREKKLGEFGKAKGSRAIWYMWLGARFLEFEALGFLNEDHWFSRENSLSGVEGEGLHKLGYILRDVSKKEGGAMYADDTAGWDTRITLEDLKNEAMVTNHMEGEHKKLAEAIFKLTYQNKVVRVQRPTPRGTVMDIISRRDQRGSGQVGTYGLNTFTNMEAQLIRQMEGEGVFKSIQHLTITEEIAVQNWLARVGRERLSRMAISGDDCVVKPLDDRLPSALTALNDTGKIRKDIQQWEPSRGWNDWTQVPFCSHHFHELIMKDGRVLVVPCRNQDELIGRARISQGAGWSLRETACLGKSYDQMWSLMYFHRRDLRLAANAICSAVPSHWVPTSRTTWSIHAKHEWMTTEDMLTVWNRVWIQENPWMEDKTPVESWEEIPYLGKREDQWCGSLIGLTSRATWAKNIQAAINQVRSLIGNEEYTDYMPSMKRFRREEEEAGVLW

Sequence of 5'-AMP-activated protein kinase catalytic subunit alpha-1 (Q13131 whole entry): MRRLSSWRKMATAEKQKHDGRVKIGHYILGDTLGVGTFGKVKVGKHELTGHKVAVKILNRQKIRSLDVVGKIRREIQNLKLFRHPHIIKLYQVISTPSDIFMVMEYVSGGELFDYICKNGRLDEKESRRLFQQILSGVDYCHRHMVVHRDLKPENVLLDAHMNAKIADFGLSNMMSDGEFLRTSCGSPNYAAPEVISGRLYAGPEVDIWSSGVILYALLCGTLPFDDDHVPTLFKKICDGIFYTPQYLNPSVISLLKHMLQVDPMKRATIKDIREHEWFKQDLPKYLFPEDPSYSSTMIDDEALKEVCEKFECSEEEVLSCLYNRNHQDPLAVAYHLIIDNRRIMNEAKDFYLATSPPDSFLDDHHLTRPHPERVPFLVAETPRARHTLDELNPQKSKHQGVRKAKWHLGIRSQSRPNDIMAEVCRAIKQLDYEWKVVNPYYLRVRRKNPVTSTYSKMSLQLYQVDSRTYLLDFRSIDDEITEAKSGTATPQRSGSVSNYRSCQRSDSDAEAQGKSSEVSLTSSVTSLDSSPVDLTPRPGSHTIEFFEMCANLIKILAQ
Sequence of Cyclin-dependent kinase 1 (P06493 whole entry): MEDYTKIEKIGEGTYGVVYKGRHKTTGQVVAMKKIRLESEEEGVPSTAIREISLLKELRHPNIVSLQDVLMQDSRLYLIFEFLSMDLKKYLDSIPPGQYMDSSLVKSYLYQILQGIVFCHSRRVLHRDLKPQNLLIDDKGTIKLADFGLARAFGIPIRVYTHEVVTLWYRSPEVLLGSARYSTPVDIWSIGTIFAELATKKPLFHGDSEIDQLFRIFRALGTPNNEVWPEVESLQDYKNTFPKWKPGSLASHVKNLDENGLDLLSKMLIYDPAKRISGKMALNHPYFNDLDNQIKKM
Sequence of Dual specificity tyrosine-phosphorylation-regulated kinase 3 (O43781 whole entry): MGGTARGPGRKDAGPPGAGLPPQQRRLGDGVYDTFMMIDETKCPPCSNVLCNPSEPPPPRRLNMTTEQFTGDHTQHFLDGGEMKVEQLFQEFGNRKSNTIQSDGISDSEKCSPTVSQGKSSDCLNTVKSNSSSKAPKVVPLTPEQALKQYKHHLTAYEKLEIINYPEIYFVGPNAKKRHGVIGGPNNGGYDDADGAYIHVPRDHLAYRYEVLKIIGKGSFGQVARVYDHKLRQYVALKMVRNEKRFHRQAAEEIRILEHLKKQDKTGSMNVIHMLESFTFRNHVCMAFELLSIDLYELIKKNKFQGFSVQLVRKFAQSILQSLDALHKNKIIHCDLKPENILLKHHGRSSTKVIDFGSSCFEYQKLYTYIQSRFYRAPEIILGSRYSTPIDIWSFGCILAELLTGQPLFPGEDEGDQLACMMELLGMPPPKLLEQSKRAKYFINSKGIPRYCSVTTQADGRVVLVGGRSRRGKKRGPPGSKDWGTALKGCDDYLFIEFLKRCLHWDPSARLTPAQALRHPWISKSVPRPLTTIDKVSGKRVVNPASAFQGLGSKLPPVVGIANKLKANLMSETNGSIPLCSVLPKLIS

Structure (SMILES): Cc1ccc(S(=O)(=O)/N=C2\C=C(Nc3cccc(C(=O)O)c3)C(=O)c3ccccc32)cc1
IC50 [1]: 4.31 µM (active)

Ki [2]: > 6.31 µM (inactive) | Ki [3]: > 7.94 µM (inactive) | Ki [4]: > 6.31 µM (inactive)
Structure (SMILES): CC(C)(CO)CNc1nccc(-c2c(-c3ccc(F)cc3)nc3c(CC4CC4)nccn23)n1

Structure (SMILES): O=[N+]([O-])c1c(Nc2ccccn2)cc(Cl)c2nonc12
AC50 [5]: 7.84 µM (active) | IC50 [6]: 20 µM (active)
